Assay results taken from PMC8140080, “The lexicon of antimicrobial peptides: a complete set of arginine and tryptophan sequences” (Communications Biology, 2021).
Where a SMILES comes first, the peptide text is derived from it.

Legend:
P. aeruginosa [1] = conditions: read-out: minimum IC50; cited from earlier work
From the text: (§1) A second general conclusion is that overall activity increases consistently with length. […] We previously reported variable activity in a group of cationic and hydrophobic AMPs based on apoE-derived AMPs, and a range of similar peptides we tested.

P. aeruginosa PAO1 = experiment: Antimicrobial assay (IC50 and MBC), broth microdilution; format: cell-based, Pseudomonas aeruginosa; conditions: Fig. 1a; range assayed 0.8-400 µM; b35 words are general, printed in the P. aeruginosa morphology study
Method: (§2) S. aureus ATCC 6538 and C. albicans ATCC 10231 were obtained from Oxoid (Basingstoke, UK), and P. aeruginosa PAO1 donated by the University of Nottingham. Bacteria were routinely grown using Mueller–Hinton broth or agar and yeast was grown using Sabaraud Dextrose broth or agar. Cultures were incubated aerobically on agar at 37 °C for 20 h or under the same conditions in broth with shaking at 200 rpm.
(§3) Planktonic cultures were obtained by inoculating single colonies from 18–20 h old agar cultures into 10 ml of sterile broth, followed by 20-h incubation. S. aureus and P. aeruginosa assays were performed using Mueller–Hinton broth and agar and C. albicans assays were performed using Sabaraud Dextrose broth and agar. […]
(§4) Peptide stock solutions of 800 µM were prepared by dissolving solid peptides (provided in pre-weighed aliquots by the supplier) in phosphate buffer solution (PBS) containing 5% (v/v) DMSO. […] Each polystyrene plate was then aerobically incubated at 37 °C for 18–20 h without shaking, before measuring OD600 using a spectrophotometer plate reader (Nanostar; BMG Labtech, Ayelsbury). […] The mean IC50 for each peptide was calculated from the results of four independent experiments, with a single technical replicate each. Specific activity was calculated by plotting IC50 (µM) multiplied by peptide length, against peptide length. […]

P. aeruginosa [2] = experiment: Scanning electron microscopy of peptide-treated bacteria; format: cell-based, Pseudomonas aeruginosa; conditions: 1 h, 37 °C, ~10^7 CFU/ml in PBS, three independent experiments
P. aeruginosa [3] = experiment: Atomic force microscopy of peptide-treated bacteria; format: cell-based, Pseudomonas aeruginosa; conditions: 100 µM peptide, 2 min exposure, 37 °C; n = 6 cells
Method: A suspension of P. aeruginosa at ~10^7 CFU/ml in PBS was prepared as for SEM; 500 μl of this suspension was incubated with 500 μl of […] peptide (200 μM in PBS; 5% v/v DMSO) at 37 °C with shaking at 200 rpm for 45 min. As a negative control, 500 μl bacterial suspension was incubated with PBS containing 5% v/v DMSO. Samples of 50 μl were withdrawn from the suspensions at 2, 15 and 45 min for imaging by AFM. Chips were prepared by adsorbing 50 μl of poly-L-lysine onto a cleaved mica chip for 3 min. Excess poly-L-lysine was washed off by adding 10 × 200 μl aliquots of MilliQ water and excess water was removed using filter paper. Test samples were deposited onto the chips and left to adhere for 1-2 min, before further washing using 10 × 200 μl aliquots of MilliQ water, blotting off excess with filter paper, before leaving chips to air-dry overnight. Chips were scanned using a Bruker multimode 8 (Bruker, Billerica, USA) in ScanAsyst air mode. All images were taken at a resolution of 512 points per dimension unless stated otherwise, and are representative of single technical experiments. Images obtained were processed and different length measurements were performed using Gwyddion version 2.48 (http://gwyddion.net/). Measurements were taken of the long axis length, short axis length and maximum vertical height of the bacterium above the chip surface. […]

S. aureus = conditions: read-out: minimum IC50; cited from earlier work
From the text: as §1

[4] = Transmission electron microscopy of peptide aggregates; format: physicochemical; conditions: single independent experiment
Method: Peptides were prepared at 800 µM in PBS with 5% v/v DMSO, and any excessively large aggregates or dust removed by centrifugation (2000 × g, 5 min). Further dilutions (80 µM) were prepared in PBS with 5% v/v DMSO, and the latter diluent was also used to prepare control (peptide-free) grids. Carbon film 200 mesh copper transmission electron microscope (TEM) grids (Agar Scientific Ltd. Stanstead, UK) were initially functionalized using a glow discharger (K100X; Quorum technologies Ltd. Laughton, UK) under a current of 25 mA for 30 sec. These were then placed onto 10 µl droplets of each test sample solution for 1 min, and then transferred onto 10 µl droplets of 1% w/v uranyl acetate for a further minute. Excess solution was removed using filter paper and sample grids were air dried for at least 1 h. Grids were imaged using a Tecnai™ T12 BioTwin TEM (FEI Company. Hillsboro, USA). Images were cropped and scale bars were added using ImageJ. Images are representative of single independent experiments.

S. aureus ATCC 6538 = format: cell-based, Staphylococcus aureus
Method: as §2, §3, §4

For “WRKWRKRWWWRKWRKRWW [ApoEdpL-W, 18mer apoE-derived antimicrobial peptide composed of W, R and K, from the authors' earlier work]”, the IC50 (P. aeruginosa [1]) is given as 7 µM.
In the case of “RRWYRWWR [Y-containing octapeptide similar to RWWRWWR, from the authors' earlier work]”, the IC50 (P. aeruginosa [1]) is given as 21 µM.
With “RWWRWWR [C-terminal amidation and N-terminal acetylation]” the “inhibitory activity (in words)” value (P. aeruginosa PAO1) was “one of the most active”, the “bacterial morphology by SEM” value (P. aeruginosa [2]; 80 µM peptide) was “formation of spheroid objects on the surface of the bacteria, indicative of membrane blebbing” and the “bacterial morphology by SEM” value (P. aeruginosa [2]; 400 µM peptide) was “dramatic reduction in the number of intact bacteria”. For the same molecule, the “bacterial height by AFM” value (P. aeruginosa [3]) was “doubled”, the “mean bacterial width by AFM” value (P. aeruginosa [3]) was “decreased by a third” and the IC50 (S. aureus) was 14 µM.
For “WRWWWWW [library heptapeptide forming substantial aggregates at 800 µM; C-terminal amidation and N-terminal acetylation]”, the “visible aggregates by TEM” value ([4]; 80 µM in PBS with 5% v/v DMSO) was “not” and the “visible aggregates by TEM” value ([4]; 800 µM in PBS with 5% v/v DMSO) was “Substantial visible aggregates were present”.
CC(=O)N[C@@H](Cc1c[nH]c2ccccc12)C(=O)N[C@@H](Cc1c[nH]c2ccccc12)C(=O)N[C@@H](Cc1c[nH]c2ccccc12)C(=O)N[C@@H](CCCNC(=N)N)C(=O)N[C@@H](CCCNC(=N)N)C(=O)N[C@@H](CCCNC(=N)N)C(=O)N[C@@H](Cc1c[nH]c2ccccc12)C(N)=O [WWWRRRW] (Ac-WWWRRRW-NH2) showed an IC50 (S. aureus ATCC 6538; ATCC 6538) of 2.9 ± 0.3 µM.
In the case of “WWWRRRR [library heptapeptide of W and R; C-terminal amidation and N-terminal acetylation carried out for all peptides]”, the “increase of IC50 relative to WWWRRRW” value (S. aureus ATCC 6538; one residue changed, organism not given) is reported as 65 fold.
In the case of “RRRRRRR [C-terminal amidation and N-terminal acetylation carried out for all peptides]”, the “inhibitory activity (in words)” value (P. aeruginosa PAO1) is reported as “inactive”, the “bacterial morphology by SEM” value (P. aeruginosa [2]; 80 µM peptide) is reported as “no discernible change in morphology” and the “bacterial morphology by SEM” value (P. aeruginosa [2]; 400 µM peptide) is reported as “no discernible change in morphology”.
